Test system: IGF-IRβ, pS6 in wild-type cortical neurons
Assay: Proteasomal inhibition experiment, Western blot in wild-type cortical neurons
Assay type: cell-based, rat
Details: 100 nM bortezomib with 4 μM 17-AGG
Experimental: Hippocampi and cortexes from 18-day-old rat embryos (Charles River CD1) were isolated under the microscope and collected in Hank's Balanced Salt Solution containing 10 mM MgCl2, 1 mM kynurenic acid, 10 mM HEPES and penicillin/streptomycin. After 5 min dissociation at 37° C. in 30 U/ml of papain, neurons were mechanically triturated and plated in Neurobasal (NB) medium containing B27 supplement, 2 mM L-glutamine, penicillin/streptomycin and primocin (NB/B27). Biochemical analysis was performed on cortical cultures plated at 1×10^6 cells/well onto six-well plates. Immunofluorescent analysis was performed on hippocampal cultures plated at 20×10^3 cells/well onto 96-well plates. All plates were coated with 20 μg/ml poly-D-lysine (PDL).
Stocks of drugs were freshly diluted in NB media before performing each experiment. The same amount of vehicle was used as vehicle-only control. For dose response curves serial dilutions were freshly made in NB media by a manual multichannel pipette using compound dilution plates.
Protein extracts were lysed in 1×SDS (22 mM Tris-HCl pH 6.8, 4% Glycerol, 0.8% SDS, 1.6% β-mercaptoethanol, bromphenol blue) sample buffer, heated to 95° C. for 5 min and stored frozen. Before being subjected to discontinuous gel electrophoresis, equal amounts of all protein lysates were verified by Coomassie gel staining. For immunoblotting, equal amounts of protein lysates were subjected to SDS-PAGE, transferred to Immobilon-P Millipore and incubated in LI-COR blocking solution at RT for 2 hrs. Primary and secondary antibodies were diluted in LI-COR blocking solution to the appropriate concentrations. LI-COR IRDye secondary antibodies were used. All images were acquired using the LI-COR Odyssey Classic imager and associated Image Studio Lite analysis software (version 5.2.5). Quantification of protein expression was performed by densitometry scans of immunoblots using LI-COR Odyssey imaging system.

Structure (SMILES): CC(C)C[C@H](NC(=O)[C@H](Cc1ccccc1)NC(=O)c1cnccn1)B(O)O [BTZ, bortezomib]
- reduction in S6 phosphorylation caused by 17-AGG: prevented
- reduction of IGF-IRβ levels caused by 17-AGG: prevented

From patent US20230218577A1, “USE OF HEAT SHOCK PROTEIN INHIBITORS FOR THE TREATMENT OF NEURODEVELOPMENTAL DISORDERS” (The Children's Medical Center Corporation, priority 2020, published 2023)
